{"source": "patent US20100240700A1", "about": "“PROPHYLACTIC PRETREATMENT WITH ANTIOXIDANTS” (MITOS PHARMACEUTICALS, INC., priority 2003, published 2010)", "test_system": "cerebral ischemia (infarcts) in patients with aneurysmal subarachnoid hemorrhage", "assay": "clinical study of Tempol on prevention of cerebral ischemia during treatment of aneurysms (MRI-DWI infarct count and size)", "assay_type": "in vivo", "conditions": "human patients, 1-300 mg/kg orally before and after surgical or endovascular treatment; MRI-DWI 1-3 days and 6 weeks post-treatment", "procedure": "This example describes a clinical study to determine the effect of Tempol on the prevention of cerebral ischemia during treatment of aneurysms in human patients that have bled. Patients, having suffered aneurysmal subarachnoid hemorrhaging, undergo magnetic resonance imaging (MRI-DWI) to count the number of infarcts and measure their size. Either 1-300 mg/kg of Tempol or a placebo are orally administered to the human patients. Patients undergo treatment for subarachnoid hemorrhaging (e.g., surgical or endovascular). After surgery, 1-300 mg/kg of Tempol or a placebo are orally administered to the patients. 1-3 days post-treatment, follow up MRI-DWI is used to count and measure the size of infarcts. The number and size of the infarcts is also measured 6 weeks post-treatment using MRI-DWI.", "data": [{"smiles": "CC1(C)CC(O)CC(C)(C)N1[O]", "note": "[Tempol, 4-hydroxy-2,2,6,6-tetramethylpiperidine-1-oxyl]", "values": [{"measurement": "number of infarcts (MRI-DWI) versus placebo", "result": "fewer"}, {"measurement": "size of infarcts (MRI-DWI) versus placebo", "result": "smaller sized"}]}]}
